The Deep4Chem optical property database

Assay: solvent given as SMILES

FC(F)(F)C(F)(F)C(F)(F)C1=NC2=C(c3ccccc3)C=C3c4cc(-c5ccccc5)c5nc(C(F)(F)C(F)(F)C(F)(F)F)nc6c(-c7ccccc7)cc(c4c56)=C4C=C(c5ccccc5)C(=N1)C2C34 (centres undefined)
fluorescence lifetime (in C1CCOC1): 3.2 ns

Nc1cccc2c1C(=O)c1ccccc1-2
fluorescence lifetime (in C1CCCCC1): 0.8 ns
fluorescence lifetime (in CC#N): 2.3 ns
fluorescence lifetime (in c1ccccc1): 1.4 ns

O=C1OC(=O)c2ccc(N(c3ccccc3)c3ccc4ccc5cccc6ccc3c4c56)c3cccc1c23
fluorescence lifetime (in CCCCCC): 4.36 ns
fluorescence lifetime (in c1ccccc1): 1.17 ns

COc1ccc2ccc([O-])cc2c1
fluorescence lifetime (in O): 4 ns

CN(c1ccccc1)c1ccc(N(c2ccccc2)c2ccc3ccc4c(N(c5ccccc5)c5ccc(N(C)c6ccccc6)cc5)ccc5ccc2c3c54)cc1
fluorescence lifetime (in ClCCl): 1.1 ns

CCOC(=O)CN1C(=O)C2=C(c3ccccc3)N(CC(=O)OCC)C(=O)C2=C1c1ccccc1
fluorescence lifetime (in CC#N): 6.7 ns
fluorescence lifetime (in CS(C)=O): 7.34 ns
fluorescence lifetime (in Cc1ccccc1): 5.93 ns

COc1cc2c(cc1-c1ccc(Cl)cc1)Cc1c3c(c4c(c1-2)-c1cc(OC)c(-c2ccc(Cl)cc2)cc1C4)C(=O)N(CCC(C)C)C3=O
fluorescence lifetime (in C1CCOC1): 3.05 ns

COc1ccc(-c2cc3c(s2)c(C)cc(=O)n3C)cc1
fluorescence lifetime (in ClCCl): 0.63 ns

Cc1ccc(-c2ccc(/C=C/c3ccc(N(C)C)cc3)cn2)nc1
fluorescence lifetime (in CC#N): 1.22 ns

Fc1nc(F)c(F)c(/C=C2/C(c3c(F)c(F)nc(F)c3F)=Cc3ccccc32)c1F
fluorescence lifetime (in CC#N): 0.3 ns

COc1cccc2c1C(=O)c1ccccc1-2
fluorescence lifetime (in CC#N): 2.1 ns
fluorescence lifetime (in CC(C)O): 8.52 ns
fluorescence lifetime (in CCCCO): 7.27 ns
fluorescence lifetime (in CCCO): 6.93 ns
fluorescence lifetime (in CCO): 5.98 ns
fluorescence lifetime (in CO): 3.82 ns

C(=C\c1cc2ccccc2c2ccccc12)/c1cc2ccccc2c2ccccc12
fluorescence lifetime (in C1CCOC1): 1.72 ns

Oc1ccc2ccccc2c1-c1nc2c(c3c1-c1ccccc1CC3)-c1ccccc1CC2
fluorescence lifetime (in ClCCl): 0.97 ns

COc1ccc(-c2nc(-c3ccccc3O)c(-c3ccccc3O)n2-c2ccc(C)cc2)cc1
fluorescence lifetime (in C1CCOC1): 2.51 ns
fluorescence lifetime (in CS(C)=O): 1.6 ns
fluorescence lifetime (in ClC(Cl)Cl): 1.78 ns
fluorescence lifetime (in ClCCl): 2.56 ns

CCC1(CC)c2ccccc2-c2c1c1c(c3c2C(CC)(CC)c2cc(-c4cccs4)ccc2-3)C(CC)(CC)c2cc(N(c3ccccc3)c3ccccc3)ccc2-1
fluorescence lifetime (in C1CCOC1): 1.7 ns

COC(=O)c1nc(Cl)c(-c2ccccc2)o1
fluorescence lifetime (in C1CCCCC1): 0.67 ns

COc1ccc(-c2ccc3c(c2)[Si](C)(C)c2cc(-c4ccc(OC)cc4)ccc2C=C3)cc1
fluorescence lifetime (in ClCCl): 1.4 ns

CCCCCCOc1ccc(N(c2ccc(OCCCCCC)cc2)c2ccc(-c3sc(-c4ccc(N(c5ccc(OCCCCCC)cc5)c5ccc(OCCCCCC)cc5)cc4)c4nc(-c5ccc(C(=O)OC)cc5)c(-c5ccc(C(=O)OC)cc5)nc34)cc2)cc1
fluorescence lifetime (in CN(C)C=O): 0.61 ns
fluorescence lifetime (in ClC(Cl)Cl): 0.58 ns

CCC1(CC)c2ccccc2-c2c1c1c(c3c2C(CC)(CC)c2cc(/C=C/c4cccs4)ccc2-3)C(CC)(CC)c2ccccc2-1
fluorescence lifetime (in C1CCOC1): 1.5 ns

OCCSc1cccc2[n+]1[B-](F)(F)n1c(c3cccc4cccc1c43)=N2
fluorescence lifetime (in ClCCl): 7.3 ns

Cc1ccc(-[c+]2c3ccccc3sc3ccccc32)cc1
fluorescence lifetime (in CC#N): 1 ns

F[B-]1(F)OC(c2ccc3c(c2)Cc2ccccc2-3)=CC(c2ccccc2)=[O+]1
fluorescence lifetime (in CC#N): 2.6 ns

CC1=CC(C)=[N+]2C1=Cc1c3ccccc3c(C#Cc3ccccc3)n1[B-]2(F)F
fluorescence lifetime (in CCCCCC): 5.41 ns
fluorescence lifetime (in CCCCCCCCO): 5.13 ns
fluorescence lifetime (in CCOC(C)=O): 5.3 ns
fluorescence lifetime (in CN(C)C=O): 4.82 ns

COc1cccc(-[c+]2c3ccccc3oc3ccccc32)c1
fluorescence lifetime (in CC#N): 0.028 ns

C#CCNC1=C2C=C(c3cc4n(c3)[B-](F)(F)[N+]3=CC=CC3=C4c3c(C)cc(C)cc3C)C(C)=[N+]2[B-](F)(F)n2c(C)ccc21
fluorescence lifetime (in C1CCCCC1): 2.3 ns
fluorescence lifetime (in CCOC(C)=O): 0.58 ns

COc1ccc(C2=CC(c3ccc(OC)cc3)=[O+][B-](C(C)=O)(C(C)=O)O2)cc1
fluorescence lifetime (in CC#N): 2.1 ns
fluorescence lifetime (in ClC(Cl)(Cl)Cl): 2.1 ns

CN(C)C(=O)c1ccc(-c2nc3ccc(N(C)C)cc3s2)cc1
fluorescence lifetime (in C1CCCCC1): 2 ns

CC(C)(C)c1cc(C(C)(C)C)c(-c2nnc(-c3ccc(-n4c5ccccc5c5ccccc54)cc3)o2)c(C(C)(C)C)c1
fluorescence lifetime (in CCO): 2.25 ns

CCC12C(=C3C(=C4c5ccc(-c6ccc(C(C)=O)s6)cc5S(=O)(=O)C41CC)C(F)(F)C(F)(F)C3(F)F)c1ccc(-c3ccc(C(C)=O)s3)cc1S2(=O)=O (centres undefined)
fluorescence lifetime (in C1COCCO1): 1.9 ns

Cc1c(C(=O)c2ccc(C(F)(F)F)cc2)c2ccc3cccc4c5cccc6ccc1c(c65)c2c34
fluorescence lifetime (in ClCCl): 1.39 ns

COc1cc(OC)cc(C2=[O+][B-](F)(F)OC(c3ccccc3)=C2)c1
fluorescence lifetime (in ClCCl): 6.87 ns

CCCCCCN1C(=O)c2cccc3c(-c4ccc(-c5cccs5)s4)ccc(c23)C1=O
fluorescence lifetime (in ClC(Cl)Cl): 0.564 ns

c1ccc(-c2nnc(-c3ccc(N4c5ccccc5Oc5ccccc54)cc3)o2)cc1
fluorescence lifetime (in Cc1ccccc1): 11 ns
fluorescence lifetime (in c1ccc(-n2c(-c3c(-n4c5ccccc5c5ccccc54)cccc3-n3c4ccccc4c4ccccc43)nc3ccccc32)cc1): 4.9 ns

CN1/C(=C/C=C/C2=[N+](CCCCCC(=O)O)c3ccc(S(=O)(=O)[O-])cc3C2(C)C)C(C)(C)c2cc(S(=O)(=O)[O-])ccc21
fluorescence lifetime (in O): 0.3 ns

CCCCCCCCC1(CCCCCCCC)c2ccccc2-c2ccc(-c3nnc(-c4cccc(-n5c6ccc(C(C)(C)C)cc6c6cc(C(C)(C)C)ccc65)c4)o3)cc21
fluorescence lifetime (in Cc1ccccc1): 7.65 ns

O=c1oc2ccccc2cc1-c1nc2ccccc2o1
fluorescence lifetime (in CO): 3.47 ns
fluorescence lifetime (in ClC(Cl)(Cl)Cl): 3.17 ns
fluorescence lifetime (in OCCO): 3.78 ns

COC(=O)c1ccc(C2=C(/C=C/c3ccc(OC)cc3)O[B-](F)(F)[O+]=C2/C=C/c2ccc(OC)cc2)cc1
fluorescence lifetime (in ClCCl): 1.34 ns

Cc1cc(C)cc(NC(=O)c2sc(Br)nc2C)c1
fluorescence lifetime (in CO): 0.33 ns
fluorescence lifetime (in ClC(Cl)Cl): 0.18 ns

CC1=[N+]2C(=C(c3ccc(C(=O)c4ccccc4)cc3)c3ccc(C)n3[B-]2(F)F)C=C1c1cc2n(c1)[B-](F)(F)[N+]1=CC=CC1=C2c1c(C)cc(C)cc1C
fluorescence lifetime (in C1CCCCC1): 2.9 ns
fluorescence lifetime (in CCOC(C)=O): 0.92 ns

COc1ccc2c(-c3nc(-c4cccc(Br)c4)no3)cc(=O)oc2c1
fluorescence lifetime (in ClC(Cl)Cl): 6.8 ns

Nc1cccc2cn[nH]c12
fluorescence lifetime (in CC#N): 4.63 ns
fluorescence lifetime (in CO): 1.69 ns
fluorescence lifetime (in O): 1.74 ns

Nc1ccc(N2C(=O)c3ccc4c5ccc6c7c(ccc(c8ccc(c3c48)C2=O)c75)C(=O)NC6=O)cc1
fluorescence lifetime (in CN(C)C=O): 2.9 ns

COCCOCCOCCOCC(COCCOCCOCCOC)Oc1cc(/C=C/c2ccc(C=C(C#N)C#N)cc2)c(OC(COCCOCCOCCOC)COCCOCCOCCOC)cc1/C=C/c1ccc(C=C(C#N)C#N)cc1
fluorescence lifetime (in ClCCl): 1.7 ns

CSc1ccc2c(c1)N(CCCN1CCN(C)CN1C)c1ccccc1S2
fluorescence lifetime (in CC#N): 1.03 ns
fluorescence lifetime (in CO): 0.96 ns
fluorescence lifetime (in O): 1.47 ns

COc1ccc(C(=Cc2ccc(/C=C(\C#N)c3ccccc3)cc2)c2ccc(OC)cc2)cc1
fluorescence lifetime (in C1CCOC1): 0.5 ns

Cc1cc(=O)[nH]c(=O)[nH]1
fluorescence lifetime (in CC#N): 0.0001 ns

c1cc2c3c(cccc3c1)C(N1CCOCCOCCN(C3=Nc4cccc5cccc3c45)CCOCC1)=N2
fluorescence lifetime (in CC#N): 0.51 ns

CCOC(=O)c1ccc2c(c1)[se]c1c3ccc(C(=O)OCC)cc3n(C)c21
fluorescence lifetime (in CCCO): 0.175 ns

CN(C)c1ccc2nc(-c3ccc(C(=O)OC(C)(C)C)cc3)sc2c1
fluorescence lifetime (in C1CCCCC1): 2.2 ns

ClC(Cl)=C1c2ccccc2C(C2(Cl)c3ccccc3C(=C(Cl)Cl)c3ccccc32)c2ccccc21 (centres undefined)
fluorescence lifetime (in C1CCCCC1): 10.4 ns
fluorescence lifetime (in CCCCCO): 16 ns
fluorescence lifetime (in CCCCO): 12.6 ns
fluorescence lifetime (in CCCO): 11.9 ns
fluorescence lifetime (in CCO): 11.7 ns
fluorescence lifetime (in CO): 11.2 ns

Cc1nnc(-c2cc(-c3nnc(C)o3)c(-n3c4ccccc4c4ccccc43)cc2-n2c3ccccc3c3ccccc32)o1
fluorescence lifetime (in Cc1ccccc1): 6.5 ns
fluorescence lifetime (in O=P(c1ccccc1)(c1ccccc1)c1ccccc1Oc1ccccc1P(=O)(c1ccccc1)c1ccccc1): 8.5 ns

C(=C\c1ccccc1/C=C/c1c2ccccc2cc2ccccc12)/c1ccncc1
fluorescence lifetime (in C1CCOC1): 3.38 ns

C[Si]1(C)c2ccccc2-c2ccccc21
fluorescence lifetime (in ClCCl): 0.15 ns

COc1ccc(-c2cnc3nn4ccccc4c3c2)cc1
fluorescence lifetime (in C1CCOC1): 4.8 ns

C(=C\c1nc2ccccc2[nH]1)/c1ccc(/C=C/c2nc3ccccc3[nH]2)cc1
fluorescence lifetime (in C1CCOC1): 1.02 ns
fluorescence lifetime (in CC#N): 1.12 ns
fluorescence lifetime (in CC(C)=O): 1.07 ns
fluorescence lifetime (in CN(C)C=O): 0.997 ns
fluorescence lifetime (in CO): 1.06 ns
fluorescence lifetime (in CS(C)=O): 0.919 ns

COc1cc2c3cc(OC)c(OC)cc3c3cc4c(C)cc(=O)oc4cc3c2cc1OC
fluorescence lifetime (in ClC(Cl)Cl): 4.6 ns

C(=C\c1cc(/C=C/c2ccc(-n3c4ccccc4c4ccccc43)cc2)cc(/C=C/c2ccc(-n3c4ccccc4c4ccccc43)cc2)c1)/c1ccc(-n2c3ccccc3c3ccccc32)cc1
fluorescence lifetime (in C1CCOC1): 4.56 ns
fluorescence lifetime (in CC#N): 3.84 ns
fluorescence lifetime (in Cc1ccccc1): 3.41 ns
fluorescence lifetime (in ClCCl): 3.39 ns

O=c1[nH]cc(F)c(=O)[nH]1
fluorescence lifetime (in CC#N): 0.0004 ns

O=c1oc2ccccc2cc1-c1ccc(-c2ccc(-c3cc4ccccc4oc3=O)cc2)cc1
fluorescence lifetime (in ClCCl): 9.47 ns

COc1ccc(/C=C/C2=CC(/C=C/c3ccc(OC)cc3)=[O+][B-](OC(C)=O)(OC(C)=O)O2)cc1
fluorescence lifetime (in C1CCOC1): 2.38 ns
fluorescence lifetime (in CC#N): 2.09 ns
fluorescence lifetime (in CC(C)=O): 2.29 ns
fluorescence lifetime (in CS(C)=O): 2.26 ns
fluorescence lifetime (in Cc1ccccc1): 2.45 ns
fluorescence lifetime (in ClC(Cl)Cl): 2.52 ns
fluorescence lifetime (in ClCCl): 2.63 ns

N#C/C(=C\c1ccc(C(F)(F)F)cc1)c1nc(-c2ccc(Cl)cc2)cs1
fluorescence lifetime (in CC#N): 1.2 ns

COc1nc(Nc2ccc3c4cccc5cccc(c6cccc2c63)c54)nc(OC)n1
fluorescence lifetime (in CCOC(C)=O): 3.5 ns
fluorescence lifetime (in CS(C)=O): 4 ns

CC(C)[Si](C#Cc1ccc(C#C[Si](C(C)C)(C(C)C)C(C)C)c2nc3cc4c(cc3nc12)[C@H]1c2ccccc2[C@@H]4c2ccccc21)(C(C)C)C(C)C
fluorescence lifetime (in CCCCCC): 3.1 ns
fluorescence lifetime (in ClCCl): 3.4 ns

c1cc2c([nH]c3c4[nH]c5sccc5c4c4nsnc4c23)s1
fluorescence lifetime (in C1CCOC1): 16.2 ns
fluorescence lifetime (in CCOC(C)=O): 16.5 ns
fluorescence lifetime (in CN(C)C=O): 16 ns
fluorescence lifetime (in Cc1ccccc1): 13.8 ns
fluorescence lifetime (in ClCCl): 13.2 ns

COc1ccc(-c2ccc3c(c2)c2cc(-c4ccc(OC)cc4)ccc2n3-c2ccc(C(=O)c3ccc4sc5ccccc5c4c3)cc2)cc1
fluorescence lifetime (in c1cc(-n2c3ccccc3c3ccccc32)cc(-n2c3ccccc3c3ccccc32)c1): 7.8 ns
